According to patent US20180161314A1, “Methods for Treating Hyperuricemia and Related Diseases” (Ardea Biosciences, Inc., priority 2010, published 2018):
“And” between values parts separate entries of the source, which are not always exact repeats. Equal values may be shown once.

Columns and labels:
[1] = target: xanthine oxidase (Homo sapiens, UniProt P47989); conditions: cited from earlier work
[2] = system: hyperuricemic subjects with symptomatic gout; experiment: Pilot study of drug 1 versus placebo and open-label allopurinol in hyperuricemic subjects with symptomatic gout (Examples 1, 2, 20); type: in vivo, human
Description: Study Objectives • To compare the proportion of subjects whose sUA level is <6.0 mg/dL following 2 weeks of continuous treatment with drug 1 compared to allopurinol and placebo. • To evaluate the percent reduction from baseline in sUA levels following 2 weeks of continuous treatment with drug 1 in combination with allopurinol. • To evaluate the proportion of subjects whose sUA levels are <6.0 mg/dL, <5.0 mg/dL and <4.0 mg/dL at each visit. • To evaluate the absolute and percent reduction from baseline in sUA levels at each visit. • To evaluate the maximum percent reduction in sUA levels from baseline during the entire treatment period. • To evaluate percent change in 24-hour urine uric acid level from baseline to Day 15. • To evaluate the safety and tolerability of drug 1 in subjects with gout. • To evaluate the pharmacokinetics, safety and tolerability of drug 1 in combination with allopurinol in subjects with gout.
A randomized, double-blind, placebo-controlled, dose titration, safety and pharmacodynamics pilot study, in approximately 26 hyperuricemic subjects with symptomatic gout enrolled at 2-3 investigational sites in N America, of: • drug 1 versus placebo and open-label allopurinol (Cohort 1); and • drug 1 in combination with allopurinol versus continued allopurinol alone (Cohort 2)
Subjects are randomized 7 days prior to Day 1 in a double-blind fashion to receive drug 1, drug 1 matching placebo, or open-label allopurinol (Cohort 1) or drug 1 or drug 1 matching placebo in combination with allopurinol (Cohort 2).
To reduce the incidence of gout flares, colchicine 0.6 mg qd is administered to all subjects starting 14 days prior to the Baseline (Day 1) visit. Subjects continue colchicine administration throughout the Treatment Period, discontinuing at the End of Study visit (one week after the last dose of study medication).
Cohort 1 approx 20 subjects randomized in 2:1:1 ratio treatment groups—drug 1:placebo:allopurinol.
Subjects randomized to double-blind treatment: • approx 10 subjects randomized to receive drug 1 200 mg qd (4 drug 1 50 mg capsules/day) for one week, followed by drug 1 400 mg qd (8 drug 1 50 mg capsules/day) for one week. • 5 subjects randomized to receive drug 1 matching placebo qd for 2 weeks (week 1-4 drug 1 matching placebo capsules; week 2-8 drug 1 matching placebo capsules)
Subjects randomized to open-label treatment: • 5 subjects randomized to receive allopurinol 300 mg tablets qd for 2 weeks Cohort 2 approx 6 subjects randomized in 5:1 ratio treatment groups—drug+allopurinol:placebo+allopurinol
For Cohorts 1 and 2, subjects randomized to double-blind treatment take drug 1 or drug 1 matching placebo every 24 hours (±1 h) (morning dose) for a period of 2 weeks. For Cohort 1, subjects randomized to open-label treatment take allopurinol every 24 hours (±1 h) (morning dose) for a period of 2 weeks.
Subjects are requested to then drink approximately 240 mL of water 1-2 hours after dosing.
1. Male or post-menopausal or surgically sterile female. 2. 18-75 years of age. 3. Hyperuricemic, defined as: Cohort 1: Screening serum uric acid is ≥8 mg/dL Cohort 2: Screening serum uric acid is ≥10 mg/dL 4. Subject meets one or more of the 1977 American Rheumatism Association (ARA) criteria for the diagnosis of acute arthritis of primary gout. 5. Subject is willing and able to give informed consent and adhere to visit/protocol schedules.
Blood samples (4.5 mL) are collected and sUA levels determined at Screening (repeated as necessary prior to Day 1), Baseline (Day 1) (1 hour and 8 hours post-dose), Day 8 (trough, 1 hour and 8 hours post-dose), Day 9 (24 hours after Day 8 dose), and Day 14 (trough and 8 hours post-dose), Day 15 and End of Study. An additional sUA level is obtained on Day 7 for Cohort 2 subjects prior to the first dose of allopurinol.
Primary pharmacodynamics parameter is the proportion of subjects with serum uric acid <6.0 mg/dL following 2 weeks of treatment. […]

[3] = Cohort 1, preliminary safety summary

Chain of xanthine oxidase (P47989 whole entry, species assumed): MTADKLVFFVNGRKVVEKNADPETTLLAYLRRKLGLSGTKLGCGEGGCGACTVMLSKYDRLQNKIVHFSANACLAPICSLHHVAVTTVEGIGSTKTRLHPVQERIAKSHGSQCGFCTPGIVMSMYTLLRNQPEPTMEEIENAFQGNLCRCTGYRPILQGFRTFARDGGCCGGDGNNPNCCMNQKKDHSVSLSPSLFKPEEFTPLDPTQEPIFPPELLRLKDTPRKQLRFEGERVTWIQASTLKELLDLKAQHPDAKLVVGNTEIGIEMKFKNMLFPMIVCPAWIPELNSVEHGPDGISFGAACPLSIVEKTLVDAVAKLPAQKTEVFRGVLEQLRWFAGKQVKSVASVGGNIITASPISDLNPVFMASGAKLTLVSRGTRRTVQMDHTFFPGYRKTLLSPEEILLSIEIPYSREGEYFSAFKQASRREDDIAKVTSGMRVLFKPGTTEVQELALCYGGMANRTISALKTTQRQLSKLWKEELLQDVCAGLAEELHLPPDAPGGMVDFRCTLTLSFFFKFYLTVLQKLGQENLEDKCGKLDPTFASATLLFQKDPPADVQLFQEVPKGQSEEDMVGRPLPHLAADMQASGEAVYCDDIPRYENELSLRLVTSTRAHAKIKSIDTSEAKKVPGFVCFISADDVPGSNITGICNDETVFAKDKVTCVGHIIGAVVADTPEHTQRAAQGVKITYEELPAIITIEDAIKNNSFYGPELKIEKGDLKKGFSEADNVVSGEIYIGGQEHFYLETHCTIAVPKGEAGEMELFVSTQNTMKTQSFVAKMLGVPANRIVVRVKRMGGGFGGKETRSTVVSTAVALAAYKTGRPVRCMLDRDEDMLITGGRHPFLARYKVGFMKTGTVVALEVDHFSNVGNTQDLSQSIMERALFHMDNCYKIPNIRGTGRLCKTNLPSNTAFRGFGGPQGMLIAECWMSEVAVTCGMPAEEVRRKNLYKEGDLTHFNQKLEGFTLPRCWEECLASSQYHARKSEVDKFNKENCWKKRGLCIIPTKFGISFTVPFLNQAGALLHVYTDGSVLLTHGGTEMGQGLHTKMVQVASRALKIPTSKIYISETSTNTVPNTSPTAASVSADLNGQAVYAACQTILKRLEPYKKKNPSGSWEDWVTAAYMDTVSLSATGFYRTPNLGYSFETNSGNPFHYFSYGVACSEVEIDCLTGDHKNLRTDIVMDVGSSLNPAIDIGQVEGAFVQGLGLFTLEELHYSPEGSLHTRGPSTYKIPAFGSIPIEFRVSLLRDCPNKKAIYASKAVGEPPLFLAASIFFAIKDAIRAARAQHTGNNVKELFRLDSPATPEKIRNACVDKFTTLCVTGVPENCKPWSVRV

## O=C(O)CSc1nnc(Br)n1-c1ccc(C2CC2)c2ccccc12 [Drug 1, Sodium 2-(5-bromo-4-(4-cyclopropylnaphthalen-1-yl)-4H-1,2,4-triazol-3-ylthio)acetate]
[1]
  Inhibition of xanthine oxidase: does not significantly inhibit
[2]; [3]
  ECG findings including interval measurements: No clinically significant ECG findings
  Tolerability (SAEs, deaths, discontinuations due to adverse events): well tolerated in this study, with no SAEs, deaths or discontinuations due to adverse events
[2]; Cohort 1, Day 14, responders/subjects, drug 1 200 mg qd 1 week then 400 mg qd 1 week, allopurinol 300 mg qd 2 weeks
  Responders Day 14 (those with sUA <6 mg/dL): 6/10^2
[2]; Day 14, two non-responders without baseline sUA above 11 mg/dL
  sUA at Day 14 of individual patients not below 6 mg/dL: 6.2 mg/dL and 6.3 mg/dL
[2]; after the first week of treatment (200 mg qd)
  Reduction in serum urate levels, on average: 40%
[2]; baseline CrCl 53 ml/min
  Reduction in sUA, patient with the lowest baseline CrCl: 40%
[2]; by the end of week 2, mild to moderate diminished renal function
  Reduction in sUA, all patients with renal impairment: ≥ 30%
[2]; compared with Phase 1 healthy volunteer studies
  Plasma levels in gout patients: generally consistent with those observed in Phase 1 healthy volunteer studies
[2]; day 14, 400 mg qd, Cockcroft-Gault and MDRD methods
  Linear trend of sUA reduction versus creatinine clearance: increasing benefit with lower CrCL
[2]; two patients while on 400 mg QD, SCr fell back to normal limits after study
  Increase in serum creatinine (SCr), Grade 1 AE: > 30%
